Values after ≈ are worked out from the molar mass of the structure shown. Where two headings read alike, the source gives them in different places.
Key:
ECM6009 aac(3)-II = test: microbe, parasite or virus in culture; assay type: cell-based, Escherichia coli; details: Escherichia coli, read-out: Compound MIC on Bacterial Strains: ECM6009 aac(3)-II
Method in brief: (§1)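 Broth microdilution MICs per CLSI M7-A7, 2-fold dilutions in cation-adjusted Mueller Hinton broth, inoculum 5×10^5 CFU/ml, 18 h at 35 °C. Strains express aminoglycoside-modifying enzymes; MIC read by turbidity at 600 nm and confirmed visually.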

ECM6006 aph(3′)-III = test: microbe, parasite or virus in culture; assay type: cell-based, Escherichia coli; details: Escherichia coli, read-out: Compound MIC on Bacterial Strains: ECM6006 aph(3′)-III
Method in brief: as §1

ECM6010 ant(2″)-I = test: microbe, parasite or virus in culture; assay type: cell-based, Escherichia coli; details: Escherichia coli, read-out: Compound MIC on Bacterial Strains: ECM6010 ant(2″)-I
Method in brief: as §1

ECM6011 aph(3′)-I = test: microbe, parasite or virus in culture; assay type: cell-based, Escherichia coli; details: Escherichia coli, read-out: Compound MIC on Bacterial Strains: ECM6011 aph(3′)-I
Method in brief: as §1

[1] = system: ECM6007 aac(6′) + aph(2″); test: microbe, parasite or virus in culture; assay type: cell-based, Escherichia coli; details: Escherichia coli, 18 h; Table 4; read-out: Compound MIC on Bacterial Strains: Escherichia coli ECM6007 aac(6′) + aph(2″)
Method in brief: (§2)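 CLSI broth microdilution used 2-fold serial dilutions in cation-adjusted Mueller Hinton broth with an inoculum of 5×10^5 CFU/ml. Plates were incubated 18 hours at 35° C. MIC was read by turbidity at 600 nm and confirmed visually.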

EC1001 acc(6′)-Ib = test: microbe, parasite or virus in culture; assay type: cell-based, Escherichia coli; details: Escherichia coli; Table 4; read-out: Compound MIC on Bacterial Strains: Escherichia coli EC1001 acc(6′)-Ib
Method in brief: as §2

[2] = system: Klebsiella pneumonia (ATCC 43816); test: MIC, broth microdilution; details: Klebsiella pneumoniae, ATCC43816, read-out: Compound MIC on Bacterial Strains: K. pneumonia ATCC 43816
[3] = system: Staphylococcus aureus (ATCC 29213); test: MIC, broth microdilution; details: Staphylococcus aureus
rats = test: Nephrotoxicity of test compounds in rats; details: once daily subcutaneous
ACM1006 acc(6′)-Ib = test: microbe, parasite or virus in culture; assay type: cell-based, Acinetobacter baumannii; details: Acinetobacter baumannii; Table 4; read-out: Compound MIC on Bacterial Strains: Acinetobacter baumannii ACM1006 acc(6′)-Ib
Method in brief: as §2

[4] = system: Pseudomonas aeruginosa (ATCC 27853); test: MIC, broth microdilution; details: Pseudomonas aeruginosa
[5] = system: Escherichia coli (ATCC 25922); test: MIC, broth microdilution; details: Escherichia coli
Sa 287 aac(6′) + aph(2″) = test: microbe, parasite or virus in culture; assay type: cell-based, Staphylococcus aureus; details: Staphylococcus aureus, 18 h; Table 5; read-out: Compound MIC on Bacterial Strains: Staphylococcus aureus Sa 287 aac(6′) + aph(2″)
Description: To compare microbiological activity of the test compounds, minimum inhibitory concentrations (MIC.s) were determined. Antibiotic MICs were obtained using the broth microdilution method according to Clinical and Laboratory Standards Institute (CLSI) approved guidelines (Methods for dilution antimicrobial susceptibility tests for bacteria that grow aerobically; approved standard—7th ed. CLSI document M7-A7. Clinical and Laboratory Standards Institute, Wayne, Pa., incorporated herein by reference in its entirety). Antibiotics were dissolved as specified by CLSI (Performance standards for antimicrobial susceptibility testing; Seventeenth informational supplement. CLSI document M100-S17. Clinical and Laboratory Standards Institute, Wayne, Pa., incorporated herein by reference in its entirety), and were serially diluted 2-fold in cation adjusted Mueller Hinton Broth (CaMHB) at 2× concentration. Bacterial inoculums were prepared in CaMHB by suspension of a colony from an agar plate that was prepared the previous day to obtain a final concentration of 5×10^5CFU/ml. The plates were incubated for 18 hours at 35° C. […] MIC.s were determined by reading the turbidity of plate wells using a SpectraMax Plus384 plate reader (Molecular Devices, Sunnyvale, Calif., USA) at 600 nm and were confirmed by visual inspection.

ACM1005 ATCC 19004 = test: MIC, broth microdilution; assay type: cell-based, Acinetobacter baumannii; details: Acinetobacter baumannii, ATCC19004; Table 4; read-out: Compound MIC on Bacterial Strains: Acinetobacter baumannii ACM1005 ATCC 19004
Method in brief: as §2

[6] = system: Acinetobacter baumannii (ATCC 19606); test: MIC, broth microdilution; details: Acinetobacter baumannii, ATCC19606, read-out: Compound MIC on Bacterial Strains: A. baumannii ATCC 19606
PAM3073 aac(6′)-I = test: microbe, parasite or virus in culture; assay type: cell-based, Pseudomonas aeruginosa; details: Pseudomonas aeruginosa, Table 5; read-out: Compound MIC on Bacterial Strains: Pseudomonas aeruginosa PAM3073 aac(6′)-I
Method in brief: as §2

PAM3072 aac(6′)-II = test: microbe, parasite or virus in culture; assay type: cell-based, Pseudomonas aeruginosa; details: Pseudomonas aeruginosa, Table 5; read-out: Compound MIC on Bacterial Strains: Pseudomonas aeruginosa PAM3072 aac(6′)-II
Method in brief: as §2

ECM6003 rmtB = test: microbe, parasite or virus in culture; assay type: cell-based, Escherichia coli; details: Escherichia coli; Table 3; read-out: Compound MIC on Bacterial Strains: ECM6003 rmtB
Method in brief: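 Broth microdilution per CLSI M7-A7 in cation-adjusted Mueller Hinton broth with 2-fold serial dilutions and 5×10^5 CFU/ml inoculum. Incubated 18 hours at 35 °C; MIC read by turbidity at 600 nm and confirmed visually.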

EC1002 aph(3′)-IV = test: organism not typed; assay type: cell-based; details: read-out: Compound MIC on Bacterial Strains: EC1002 aph(3′)-IV
Method in brief: as §1

[7] = ATCC29213, read-out: Compound MIC on Bacterial Strains: S. aureus ATCC 29213, QC strain, Table 2
[8] = ATCC29213, read-out: Compound MIC on Bacterial Strains: Staphylococcus aureus SAM1000 ATCC 29213, Table 5
[9] = ATCC27853, read-out: Compound MIC on Bacterial Strains: P. aeruginosa ATCC 27853
[10] = ATCC27853, read-out: Compound MIC on Bacterial Strains: Pseudomonas aeruginosa PAM3034 ATCC 27853
[11] = ATCC25922, read-out: Compound MIC on Bacterial Strains: E. coli ATCC 25922
[12] = ATCC25922, read-out: Compound MIC on Bacterial Strains: ECM6000 ATCC 25922
[13] = ATCC25922, read-out: Compound MIC on Bacterial Strains: Escherichia coli ECM6000 ATCC 25922

CN[C@@H]1[C@@H](O)[C@@H](O[C@@H]2[C@@H](O)[C@H](O[C@H]3O[C@H](CNCCO)CC[C@H]3N)[C@@H](N)C[C@H]2NC(=O)[C@@H](O)CN)OC[C@]1(C)O [Compound 2, (S)-3-amino-N-((1R,2S,3S,4R,5S)-5-amino-4-((2R,3R,6S)-3-amino-6-((2-hydroxyethylamino)methyl)tetrahydro-2H-pyran-2-yloxy)-2-((2R,3R,4R,5R)-3,5-dihydroxy-5-methyl-4-(methylamino)tetrahydro-2H-pyran-2-yloxy)-3-hydroxycyclohexyl)-2-hydroxypropanamide]
MIC (ECM6009 aac(3)-II): < 1 µg/mL
MIC (ECM6006 aph(3′)-III): < 1 µg/mL
MIC (ECM6010 ant(2″)-I): < 1 µg/mL
MIC (ECM6011 aph(3′)-I): < 1 µg/mL
MIC [1]: < 1 µg/mL
MIC (EC1001 acc(6′)-Ib): < 1 µg/mL
MIC [2]: < 1 µg/mL
MIC [3, 7]: < 1 µg/mL
MIC [3, 8]: < 1 µg/mL
Histopathology Results After 7 days of Dosing (rats; 10 mg/kg/day): Minimal Tubular Eosinophilia;
Histopathology Results After 14 days of Dosing (rats; 10 mg/kg/day): No change
Histopathology Results After 7 days of Dosing (rats; 30 mg/kg/day): Minimal Tubular Eosinophilia;
Histopathology Results After 14 days of Dosing (rats; 30 mg/kg/day): Minimal to Mild Dilatation
Histopathology Results After 7 days of Dosing (rats; 100 mg/kg/day): Mild Tubular Eosinophila
Histopathology Results After 14 days of Dosing (rats; 100 mg/kg/day): No Deaths; Moderate to Severe
MIC (ACM1006 acc(6′)-Ib): 1 to 8 µg/mL (≈ 1.72 to 13.8 µM)
MIC [4, 9]: 1 to 8 µg/mL (≈ 1.72 to 13.8 µM)
MIC [4, 10]: 1 to 8 µg/mL (≈ 1.72 to 13.8 µM)
MIC [5, 11]: < 1 µg/mL
MIC [5, 12]: < 1 µg/mL
MIC [5, 13]: < 1 µg/mL
MIC (Sa 287 aac(6′) + aph(2″)): < 1 µg/mL
MIC (ACM1005 ATCC 19004): 1 to 8 µg/mL (≈ 1.72 to 13.8 µM)
MIC [6]: > 8 µg/mL
MIC (PAM3073 aac(6′)-I): 1 to 8 µg/mL (≈ 1.72 to 13.8 µM)
MIC (PAM3072 aac(6′)-II): > 8 µg/mL
MIC (ECM6003 rmtB): > 8 µg/mL
MIC (EC1002 aph(3′)-IV): 1 to 8 µg/mL (≈ 1.72 to 13.8 µM)

CN[C@@H]1[C@@H](O)[C@@H](O[C@@H]2[C@@H](O)[C@H](O[C@H]3O[C@H](CNCCO)CC[C@H]3N)[C@@H](N)C[C@H]2NC(=O)[C@@H](O)CCN)OC[C@]1(C)O [Compound 1, (2S)-4-amino-N-((1R,2S,3S,4R,5S)-5-amino-4-((2R,3R,6S)-3-amino-6-((2-hydroxyethylamino)methyl)tetrahydro-2H-pyran-2-yloxy)-2-((2R,3R,5R)-3,5-dihydroxy-5-methyl-4-(methylamino)tetrahydro-2H-pyran-2-yloxy)-3-hydroxycyclohexyl)-2-hydroxybutanamide]
MIC (ECM6009 aac(3)-II): < 1 µg/mL
MIC (ECM6006 aph(3′)-III): 1 to 8 µg/mL (≈ 1.68 to 13.5 µM)
MIC (ECM6010 ant(2″)-I): < 1 µg/mL
MIC (ECM6011 aph(3′)-I): < 1 µg/mL
MIC [1]: < 1 µg/mL
MIC (EC1001 acc(6′)-Ib): < 1 µg/mL
MIC [2]: < 1 µg/mL
MIC [3, 7]: < 1 µg/mL
MIC [3, 8]: < 1 µg/mL
Histopathology Results After 7 days of Dosing (rats; 10 mg/kg/day): No Change
Histopathology Results After 14 days of Dosing (rats; 10 mg/kg/day): No Change
Histopathology Results After 7 days of Dosing (rats; 30 mg/kg/day): Mild Nephrosis
Histopathology Results After 14 days of Dosing (rats; 30 mg/kg/day): Moderate to Severe Nephrosis
Histopathology Results After 7 days of Dosing (rats; 100 mg/kg/day): Severe Nephrosis
Histopathology Results After 14 days of Dosing (rats; 100 mg/kg/day): 4/4 Died
MIC (ACM1006 acc(6′)-Ib): < 1 µg/mL
MIC [4, 9]: 1 to 8 µg/mL (≈ 1.68 to 13.5 µM)
MIC [4, 10]: 1 to 8 µg/mL (≈ 1.68 to 13.5 µM)
MIC [5, 11]: < 1 µg/mL
MIC [5, 12]: < 1 µg/mL
MIC [5, 13]: < 1 µg/mL
MIC (Sa 287 aac(6′) + aph(2″)): 1 to 8 µg/mL
MIC (ACM1005 ATCC 19004): < 1 µg/mL
MIC [6]: > 8 µg/mL
MIC (PAM3073 aac(6′)-I): 1 to 8 µg/mL (≈ 1.68 to 13.5 µM)
MIC (PAM3072 aac(6′)-II): > 8 µg/mL
MIC (ECM6003 rmtB): > 8 µg/mL
MIC (EC1002 aph(3′)-IV): < 1 µg/mL
